Assay results from patent US20120088827A1 (Profectus Biosciences, Inc., priority 2009, published 2012).

How the values were obtained:
c-Rel = molecular target: T1, c-Rel (Homo sapiens, UniProt Q04864); experiment: TransAM NF-κB Family DNA Binding ELISA, c-Rel
T1 sequence (Q04864 1-619): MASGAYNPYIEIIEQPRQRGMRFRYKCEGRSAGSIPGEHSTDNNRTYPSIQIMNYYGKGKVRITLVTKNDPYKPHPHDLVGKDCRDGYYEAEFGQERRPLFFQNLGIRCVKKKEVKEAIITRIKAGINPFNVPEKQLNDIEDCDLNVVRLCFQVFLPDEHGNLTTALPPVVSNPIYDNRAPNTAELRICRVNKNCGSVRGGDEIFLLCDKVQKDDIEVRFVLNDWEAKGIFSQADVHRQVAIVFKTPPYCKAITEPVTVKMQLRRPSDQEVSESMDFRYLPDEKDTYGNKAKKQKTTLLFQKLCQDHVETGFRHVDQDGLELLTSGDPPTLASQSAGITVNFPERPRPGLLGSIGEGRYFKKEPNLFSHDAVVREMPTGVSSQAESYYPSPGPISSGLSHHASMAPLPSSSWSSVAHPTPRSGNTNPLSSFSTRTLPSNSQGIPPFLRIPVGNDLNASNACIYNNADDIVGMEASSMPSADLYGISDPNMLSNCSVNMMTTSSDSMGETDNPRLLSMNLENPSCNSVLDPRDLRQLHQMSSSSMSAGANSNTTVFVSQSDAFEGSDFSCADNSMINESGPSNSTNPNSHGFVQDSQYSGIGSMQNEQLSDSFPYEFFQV
Procedure: (§1) The binding activity of NF-κB heterodimer or homodimer subunits from activated nuclear extracts or purified recombinant NF-κB proteins exposed to the drug compounds was evaluated using the TransAM NF-κB Family binding ELISA (Active Motif). Approximately 3-5 μg of nuclear extracts from TNFα activated Hela or Raji cells (Active Motif) or 20 ng of purified recombinant proteins (p65 and p50 from Active Motif, p52 from Santa Cruz) were incubated for 1 hour at room temperature with 20 μL drug compounds diluted in Complete Lysis buffer without DTT. Treated samples were then transferred to 30 μL Complete Binding Buffer (with DTT) in microplate wells pre-coated with the NF-κB consensus oligonucleotide. […] The plate was incubated for 1 hour at room temperature with gentle shaking and then washed 3 times with 200 μL 1× Wash Buffer. NF-κB p65, p50, p52, RelB, or c-Rel subunits bound to the plate were detected with 100 μL of the primary antibody (diluted 1:1000 in 1× Antibody Buffer) specific for that subunit. The plate was incubated for 1 hour at room temperature and then washed 3 times with 200 μL 1× Wash Buffer. Next, 100 μL of a HRP conjugated goat anti-rabbit antibody (diluted 1:1,000 in 1× Antibody Buffer) was added to each well. The plate was incubated for 1 hour at room temperature and then washed 4 times with 200 μL 1× Wash Buffer. 100 μL of room temperature Developing Solution was added to each well. The reaction was allowed to develop for 2-10 minutes until a medium dark blue color developed (depending on the subunit activity in the lot of extract or lot of recombinant protein used) and then the reaction was stopped with 100 μL Stop Solution yielding a yellow color. Absorbance was recorded using a Becton-Dickinson DTX 880 Multimode Detector at 450 nm with a reference wavelength subtracted at 620 nm.

RelB = molecular target: T2, RelB (Homo sapiens, UniProt Q01201); experiment: TransAM NF-κB Family DNA Binding ELISA, RelB
T2 sequence (Q01201 1-579): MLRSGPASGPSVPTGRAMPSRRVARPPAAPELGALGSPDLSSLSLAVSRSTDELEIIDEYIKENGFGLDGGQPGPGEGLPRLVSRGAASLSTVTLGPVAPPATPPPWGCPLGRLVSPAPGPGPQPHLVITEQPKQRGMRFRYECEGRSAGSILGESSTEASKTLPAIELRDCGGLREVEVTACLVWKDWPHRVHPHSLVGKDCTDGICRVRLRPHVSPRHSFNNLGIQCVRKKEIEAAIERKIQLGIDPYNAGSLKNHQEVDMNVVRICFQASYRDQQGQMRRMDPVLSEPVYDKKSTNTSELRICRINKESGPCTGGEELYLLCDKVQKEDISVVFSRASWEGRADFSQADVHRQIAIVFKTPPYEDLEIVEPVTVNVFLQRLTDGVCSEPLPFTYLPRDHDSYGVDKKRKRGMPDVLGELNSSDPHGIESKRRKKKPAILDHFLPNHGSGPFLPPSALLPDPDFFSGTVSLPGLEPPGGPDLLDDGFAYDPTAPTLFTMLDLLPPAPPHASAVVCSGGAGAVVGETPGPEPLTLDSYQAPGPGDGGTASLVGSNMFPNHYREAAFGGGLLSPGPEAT
Procedure: as §1

| inhibition at 5 µM (c-Rel) | inhibition at 5 µM (RelB) | SMILES |
| --- | --- | --- |
| 9% | 5% | CCCC(C)C(=O)Oc1ccccc1C(=O)NC1=CC(=O)C2OC2C1O (racemic) [Example 4, (±)-2-(2-hydroxy-5-oxo-7-oxabicyclo[4.1.0]hept-3-en-3-ylcarbamoyl)phenyl 2-methylpentanoate] |
| 6% | 3% | CC(C)(C)CC(=O)Oc1ccccc1C(=O)NC1=CC(=O)C2OC2C1O (racemic) [Example 6, (±)-2-(2-hydroxy-5-oxo-7-oxabicyclo[4.1.0]hept-3-en-3-ylcarbamoyl)phenyl 3,3-dimethylbutanoate] |
| 3% | 3% | O=C(CC1CCCCC1)Oc1ccccc1C(=O)NC1=CC(=O)C2OC2C1O (racemic) [Example 3, (±)-2-(2-hydroxy-5-oxo-7-oxabicyclo[4.1.0]hept-3-en-3-ylcarbamoyl)phenyl 2-cyclohexylacetate] |
| 1% | 0% | CC(C)CC(=O)Oc1ccccc1C(=O)NC1=CC(=O)C2OC2C1O (racemic) [Example 1, (±)-2-(2-hydroxy-5-oxo-7-oxabicyclo[4.1.0]hept-3-en-3-ylcarbamoyl)phenyl 3-methylbutanoate] |
| 0% | 2% | CC(C)OC(=O)Oc1ccccc1C(=O)NC1=CC(=O)C2OC2C1OC(=O)OC(C)C (racemic) [Example 2, (±)-3-(2-isopropoxycarbonyloxy-benzoylamino)-5-oxo-7-oxa-bicyclo[4.1.0]hept-3-en-2-yl ester isopropyl ester] |
| 9% | 5% | CCCCC(CC)C(=O)Oc1ccccc1C(=O)NC1=CC(=O)C2OC2C1O (racemic) [Example 5, (±)-2-(2-hydroxy-5-oxo-7-oxabicyclo[4.1.0]hept-3-en-3-ylcarbamoyl)phenyl 2-ethylhexanoate] |
| 5% | 0% | CC(C)OC(=O)Oc1ccccc1C(=O)NC1=CC(=O)C2OC2C1O (racemic) [Example 7, (±)-2-(2-hydroxy-5-oxo-7-oxabicyclo[4.1.0]hept-3-en-3-ylcarbamoyl)phenyl isopropyl carbonate] |

| SMILES | inhibition at 5 µM (c-Rel) | inhibition at 5 µM (RelB) |
| --- | --- | --- |
| CC(C)OC(=O)OC1C(NC(=O)c2ccccc2O)=CC(=O)C2OC21 (racemic) [Example 8] | 2% | 2% |
